# Laboratory results: US10385070B2, “Chroman-spirocyclic piperidine amides as modulators of ion channels” (VERTEX PHARMACEUTICALS INCORPORATED, priority 2011, dated 2019)
# Target: human NaV subtype, like NaV 1.7 (Homo sapiens, UniProt Q15858)
# Test: E-VIPR optical membrane potential assay with electrical stimulation
# Format: cell-based
# Details: active against one or more sodium channels; assay and NaV subtype not specified for Table 3; read-out: IC50 Binned Activity Data
# Description: Assays for Detecting and Measuring NaV Inhibition Properties of Compound E-VIPR Optical Membrane Potential Assay Method with Electrical Stimulation
# Sodium channels are voltage-dependent proteins that can be activated by inducing membrane voltage changes by applying electric fields. The electrical stimulation instrument and methods of use are described in Ion Channel Assay Methods PCT/US01/21652, herein incorporated by reference and are referred to as E-VIPR. The instrument comprises a microtiter plate handler, an optical system for exciting the coumarin dye while simultaneously recording the coumarin and oxonol emissions, a waveform generator, a current- or voltage-controlled amplifier, and a device for inserting electrodes in well. Under integrated computer control, this instrument passes user-programmed electrical stimulus protocols to cells within the wells of the microtiter plate.
# 24 hours before the assay on E-VIPR, HEK cells expressing human NaV subtype, like NaV 1.7, are seeded in 384-well poly-lysine coated plates at 15,000-20,000 cells per well. Other subtypes are performed in an analogous mode in a cell line expressing the NaV of interest. HEK cells are grown in media (exact composition is specific to each cell type and NaV subtype) supplemented with 10% FBS (Fetal Bovine Serum, qualified; GibcoBRL #16140-071) and 1% Pen-Strep (Penicillin-Streptomycin; GibcoBRL #15140-122). Cells are grown in vented cap flasks, in 90% humidity and 10% CO2, to 100% confluence. They are usually split by trypsinization 1:10 or 1:20, depending on scheduling needs, and grown for 2-3 days before the next split.
# 100 mg/mL Pluronic F-127 (Sigma #P2443), in dry DMSO
# Compound Plates: 384-well round bottom plate, e.g. Corning 384-well Polypropylene Round Bottom #3656
# Cell Plates: 384-well tissue culture treated plate, e.g. Greiner #781091-1B
# Bath1 buffer. Glucose 10 mM (1.8 g/L), Magnesium Chloride (Anhydrous), 1 mM (0.095 g/L), Calcium Chloride, 2 mM (0.222 g/L), HEPES 10 mM (2.38 g/L), Potassium Chloride, 4.5 mM (0.335 g/L), Sodium Chloride 160 mM (9.35 g/L).
# Hexyl Dye Solution: Bath1 Buffer+0.5% β-cyclodextrin (make this prior to use, Sigma #C4767), 8 μM CC2-DMPE+2.5 μM DiSBAC6(3). To make the solution Add volume of 10% Pluronic F127 stock equal to volumes of CC2-DMPE+DiSBAC6(3). The order of preparation is first mix Pluronic and CC2-DMPE, then add DiSBAC6(3) while vortexing, then add Bath1+β-Cyclodextrin.
# 1) Pre-spot compounds (in neat DMSO) into compound plates. Vehicle control (neat DMSO), the positive control (20 mM DMSO stock tetracaine, 125 μM final in assay) and test compounds are added to each well at 160× desired final concentration in neat DMSO. Final compound plate volume will be 80 μL (80-fold intermediate dilution from 1 μL DMSO spot; 160-fold final dilution after transfer to cell plate). Final DMSO concentration for all wells in assay is 0.625%.
# 2) Prepare Hexyl Dye Solution.
# 3) Prepare cell plates. On the day of the assay, medium is aspirated and cells are washed three times with 100 μL of Bath1 Solution, maintaining 25 μL residual volume in each well.
# 4) Dispense 25 μL per well of Hexyl Dye Solution into cell plates. Incubate for 20-35 minutes at room temp or ambient conditions.
# 5) Dispense 80 μL per well of Bath1 into compound plates. Acid Yellow-17 (1 mM) is added and Potassium Chloride can be altered from 4.5 to 20 mM depending on the NaV subtype and assay sensitivity.
# 6) Wash cell plates three times with 100 μL per well of Bath1, leaving 25 μL of residual volume. Then transfer 25 uL per well from Compound Plates to Cell Plates. Incubate for 20-35 minutes at room temp/ambient condition
# 7) Read Plate on E-VIPR. Use the current-controlled amplifier to deliver stimulation wave pulses for typically 9 seconds and a scan rate of 400 Hz. A pre-stimulus recording is performed for 0.5 seconds to obtain the un-stimulated intensities baseline. […]
# Sequence of human NaV subtype, like NaV 1.7 (Q15858 whole entry): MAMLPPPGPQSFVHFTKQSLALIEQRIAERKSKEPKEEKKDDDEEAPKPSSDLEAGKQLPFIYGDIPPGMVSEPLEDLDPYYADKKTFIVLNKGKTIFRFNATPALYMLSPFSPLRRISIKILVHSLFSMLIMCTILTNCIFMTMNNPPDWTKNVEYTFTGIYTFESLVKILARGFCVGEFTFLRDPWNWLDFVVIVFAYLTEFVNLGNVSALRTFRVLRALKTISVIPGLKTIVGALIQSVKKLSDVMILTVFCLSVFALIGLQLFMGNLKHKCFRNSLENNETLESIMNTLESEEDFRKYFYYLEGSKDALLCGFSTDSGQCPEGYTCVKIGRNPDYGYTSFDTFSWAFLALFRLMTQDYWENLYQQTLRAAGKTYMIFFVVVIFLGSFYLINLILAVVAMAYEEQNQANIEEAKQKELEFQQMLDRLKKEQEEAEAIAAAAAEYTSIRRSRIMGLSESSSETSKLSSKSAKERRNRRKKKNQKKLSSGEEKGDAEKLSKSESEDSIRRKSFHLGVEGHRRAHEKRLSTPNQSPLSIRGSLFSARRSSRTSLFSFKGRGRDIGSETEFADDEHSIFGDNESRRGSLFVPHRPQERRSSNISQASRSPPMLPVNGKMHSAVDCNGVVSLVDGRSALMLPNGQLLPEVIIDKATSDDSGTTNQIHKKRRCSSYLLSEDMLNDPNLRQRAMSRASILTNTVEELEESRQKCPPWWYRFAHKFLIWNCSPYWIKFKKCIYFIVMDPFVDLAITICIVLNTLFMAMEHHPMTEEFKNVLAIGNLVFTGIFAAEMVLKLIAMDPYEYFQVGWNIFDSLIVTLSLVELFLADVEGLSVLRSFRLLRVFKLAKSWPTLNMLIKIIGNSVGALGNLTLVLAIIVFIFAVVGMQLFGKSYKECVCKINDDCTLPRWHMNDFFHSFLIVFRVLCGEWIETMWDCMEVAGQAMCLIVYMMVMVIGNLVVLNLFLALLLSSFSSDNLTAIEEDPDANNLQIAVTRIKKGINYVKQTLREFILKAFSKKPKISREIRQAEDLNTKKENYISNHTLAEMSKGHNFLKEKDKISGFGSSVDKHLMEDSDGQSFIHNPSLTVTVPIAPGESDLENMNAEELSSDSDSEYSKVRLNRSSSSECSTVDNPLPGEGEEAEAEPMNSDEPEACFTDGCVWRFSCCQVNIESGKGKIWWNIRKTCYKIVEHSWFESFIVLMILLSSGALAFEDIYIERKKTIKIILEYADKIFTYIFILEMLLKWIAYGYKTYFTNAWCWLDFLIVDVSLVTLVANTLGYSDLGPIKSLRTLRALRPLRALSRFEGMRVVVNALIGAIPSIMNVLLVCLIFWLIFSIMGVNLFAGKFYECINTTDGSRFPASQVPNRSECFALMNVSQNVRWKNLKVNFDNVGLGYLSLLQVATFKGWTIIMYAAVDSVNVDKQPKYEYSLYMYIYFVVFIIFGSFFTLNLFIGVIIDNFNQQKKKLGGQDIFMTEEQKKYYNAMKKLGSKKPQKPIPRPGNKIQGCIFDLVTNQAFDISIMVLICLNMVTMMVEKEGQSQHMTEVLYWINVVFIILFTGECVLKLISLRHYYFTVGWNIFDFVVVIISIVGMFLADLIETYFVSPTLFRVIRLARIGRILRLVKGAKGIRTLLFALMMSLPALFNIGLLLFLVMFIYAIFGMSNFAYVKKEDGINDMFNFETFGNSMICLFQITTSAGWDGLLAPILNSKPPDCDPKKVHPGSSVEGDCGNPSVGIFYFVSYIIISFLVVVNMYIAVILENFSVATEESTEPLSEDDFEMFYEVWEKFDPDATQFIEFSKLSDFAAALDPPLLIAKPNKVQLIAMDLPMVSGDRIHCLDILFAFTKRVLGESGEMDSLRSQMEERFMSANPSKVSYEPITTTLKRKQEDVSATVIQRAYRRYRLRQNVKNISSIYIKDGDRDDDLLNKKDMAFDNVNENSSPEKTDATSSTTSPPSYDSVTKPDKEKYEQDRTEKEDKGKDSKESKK
row,SMILES,IC50 [nM]
1,CC(C)O[C@@H]1CC2(CCN(C(=O)c3ccc(NC(C)(C)C)cn3)CC2)Oc2ccc(F)cc21 [Compound 174],≤ 2000
2,CC(C)O[C@@H]1CC2(CCN(C(=O)c3ccc(N4CC5CC4CO5)cn3)CC2)Oc2ccc(F)cc21 (some centres unmarked) [Compound 95],≤ 2000
3,CC(C)O[C@@H]1CC2(CCN(C(=O)c3ccc(S(=O)(=O)C(F)(F)F)cc3)CC2)Oc2ccc(F)cc21 [Compound 7],≤ 2000
4,CC(C)O[C@@H]1CC2(CCN(C(=O)c3ccccc3OC(F)(F)F)CC2)Oc2ccc(F)cc21 [Compound 131],≤ 2000
5,COc1cc(C(=O)N2CCC3(CC2)CC(OC(C)C)c2ccccc2O3)ccc1C(C)(C)CO (centres unmarked) [Compound 62],≤ 2000
6,COCOC1=Cc2ccccc2OC12CCN(C(=O)c1ccc(OC(C)C)c(OC)c1)CC2 [Compound 44],≤ 2000
7,C=CCOC1CC2(CCN(C(=O)c3ccc(OC(C)C)c(OC)c3)CC2)Oc2ccccc21 (centres unmarked) [Compound 21],≤ 2000
8,CC(C)O[C@@H]1CC2(CCN(C(=O)c3ccc(N4CCN(S(C)(=O)=O)CC4)cn3)CC2)Oc2ccc(F)cc21 [Compound 17],≤ 2000
9,CC(C)O[C@H]1CC2(CCN(C(=O)c3ccc(C(C)(C)O)c(F)c3)CC2)Oc2cc(F)ccc21 [Compound 154],≤ 2000
10,Cc1cc(OC(C)C)ccc1C(=O)N1CCC2(CC1)C[C@@H](OC(C)C)c1ccccc1O2 [Compound 169],≤ 2000
11,Cc1nc(C(=O)N2CCC3(CC2)C[C@@H](OC(C)C)c2cc(F)ccc2O3)ccc1S(=O)(=O)C(C)C [Compound 101],> 5000
12,COc1cc(C(=O)N2CCC3(CC2)CC(OC(C)C)c2cccnc2O3)ccc1OC(C)C (centres unmarked) [Compound 84],≤ 2000
13,CC(C)O[C@@H]1CC2(CCN(C(=O)c3ccc(C(C)(C)O)c(F)c3)CC2)Oc2cc(F)ccc21 [Compound 130],2000 to 5000
14,COc1cc(C(=O)N2CCC3(CC2)CC(Oc2cccnc2)c2ccccc2O3)ccc1OC(C)C (centres unmarked) [Compound 145],≤ 2000
15,COc1cc(C(=O)N2CCC3(CC2)Oc2ccccc2CC3OC)ccc1OC(C)C (centres unmarked) [Compound 165],≤ 2000
16,CC(C)O[C@@H]1CC2(CCN(C(=O)c3ccc(N4CC(C)OC(C)C4)cn3)CC2)Oc2ccc(F)cc21 (some centres unmarked) [Compound 176],≤ 2000
17,COc1cc(C(=O)N2CCC3(CC2)Oc2ccccc2C(OC(C)C)C3C)ccc1OC(C)C (centres unmarked) [Compound 94],≤ 2000
18,COc1cc(C(=O)N2CCC3(CC2)CC(NC(C)C)c2ccccc2O3)ccc1OC(C)C (centres unmarked) [Compound 47],> 5000
19,COc1cc(C(=O)N2CCC3(CC2)C[C@H](OC(C)C)c2ccccc2O3)ccc1C(C)(C)O [Compound 166],≤ 2000
20,Cc1cc(C(=O)N2CCC3(CC2)C[C@@H](OC(C)C)c2ccccc2O3)ccc1OC(C)C [Compound 72],≤ 2000
21,CCOC1CC2(CCN(C(=O)c3ccc(OC(C)C)c(OC)c3)CC2)Oc2ccccc21 (centres unmarked) [Compound 12],≤ 2000
22,CC(C)O[C@@H]1CC2(CCN(C(=O)c3ccc(S(=O)(=O)C(C)C)cc3)CC2)Oc2c(F)cc(F)cc21 [Compound 153],2000 to 5000
23,COc1cc(C(=O)N2CCC3(CC2)CC(OCC2CC2)c2ccccc2O3)ccc1OC(C)C (centres unmarked) [Compound 158],≤ 2000
24,Cc1cc(C(=O)N2CCC3(CC2)CC(OC(C)C)c2cccc(F)c2O3)ccc1S(=O)(=O)C(C)C (centres unmarked) [Compound 90],≤ 2000
25,CC(C)O[C@@H]1CC2(CCN(C(=O)c3ccc(SC(C)C)cc3)CC2)Oc2ccc(F)cc21 [Compound 53],≤ 2000
26,COc1ccc(C(=O)N2CCC3(CC2)C[C@@H](OC(C)C)c2ccccc2O3)cc1C [Compound 20],≤ 2000
27,Cc1cc(C(=O)N2CCC3(CC2)C[C@@H](OC(C)C)c2ccccc2O3)ccc1O [Compound 36],≤ 2000

row,SMILES,IC50 [nM]
1,COc1cc(C(=O)N2CCC3(CC2)CC(OC(C)C)c2ccccc2O3)ccc1OC(C)C (centres unmarked) [Compound 150],≤ 2000
2,COc1cc(C(=O)N2CCC3(CC2)CC(COC(C)C)c2ccccc2O3)ccc1OC(C)C (centres unmarked) [Compound 2],≤ 2000
3,CC(C)OC1CC2(CCN(C(=O)c3ccc(S(=O)(=O)C(C)C)cc3)CC2)Oc2c(F)cccc21 (centres unmarked) [Compound 78],≤ 2000
4,COc1ccccc1C(=O)N1CCC2(CC1)CC(C(C)C)c1ccccc1O2 (centres unmarked) [Compound 40],> 5000
5,Cc1cc(C(=O)N2CCC3(CC2)C[C@@H](O)c2cc(F)ccc2O3)ccc1C(C)(C)O [Compound 134],≤ 2000
6,COc1cc(C(=O)N2CCC3(CC2)CC(OC(C)C)c2ccccc2S3(=O)=O)ccc1OC(C)C (centres unmarked) [Compound 81],≤ 2000
7,CC(C)O[C@@H]1CC2(CCN(C(=O)c3ccc([S+]([O-])C(C)C)cc3)CC2)Oc2ccc(F)cc21 (some centres unmarked) [Compound 161],≤ 2000
8,CCO[C@@H]1CC2(CCN(C(=O)c3ccc(S(=O)(=O)CC(C)C)cc3)CC2)Oc2ccc(F)cc21 [Compound 5],≤ 2000
9,Cc1cc(C(=O)N2CCC3(CC2)CC(OC(C)C)c2cccnc2O3)ccc1OC(C)C (centres unmarked) [Compound 45],≤ 2000
10,CCS(=O)(=O)c1ccc(C(=O)N2CCC3(CC2)C[C@@H](OC(C)C)c2cc(F)cc(F)c2O3)cc1C [Compound 4],2000 to 5000
11,COc1cc(C(=O)N2CCC3(CC2)C[C@H](OC(C)C)c2ccccc2O3)ccc1C(C)(C)CO [Compound 71],≤ 2000
12,CC(C)Oc1ccc(C(=O)N2CCC3(CC2)C[C@@H](OC(C)C)c2cc(F)ccc2O3)cc1CO [Compound 148],≤ 2000
13,CC(C)Nc1ccc(C(=O)N2CCC3(CC2)C[C@@H](OC(C)C)c2cc(F)ccc2O3)nc1 [Compound 46],≤ 2000
14,COc1cc(C(=O)N2CCC3(CC2)CC(COC(C)C)c2ccccc2O3)ccc1C(C)(C)O (centres unmarked) [Compound 163],≤ 2000
15,CC(C)O[C@@H]1CC2(CCN(C(=O)c3ccc(N(C)CCN(C)C)cn3)CC2)Oc2ccc(F)cc21 [Compound 97],> 5000
16,CC(C)Oc1ccc(C(=O)N2CCC3(CC2)C[C@H](OC(C)C)c2ccccc2O3)cc1C#N [Compound 167],≤ 2000
17,COc1cc(C(=O)N2CCC3(CC2)C[C@@H](O)c2cc(F)ccc2O3)ccc1OC(C)C [Compound 98],≤ 2000
18,COc1cc(C(=O)N2CCC3(CC2)C[C@@H](OC(C)C)c2cc(F)ccc2O3)ccc1OC(F)F [Compound 79],≤ 2000
19,CC(C)Oc1ccc(C(=O)N2CCC3(CC2)C[C@@H](OC(C)C)c2ccccc2O3)cn1 [Compound 124],> 5000
20,CCCNc1ccc(C(=O)N2CCC3(CC2)C[C@@H](OC(C)C)c2cc(F)ccc2O3)nc1 [Compound 178],≤ 2000
21,COc1cc(C(=O)N2CCC3(CC2)C[C@@H](OC(C)C)c2ccccc2O3)ccc1O [Compound 136],≤ 2000
22,CC(C)CS(=O)(=O)c1ccc(C(=O)N2CCC3(CC2)C[C@@H](OC(C)C)c2cc(F)ccc2O3)cc1 [Compound 147],≤ 2000
23,COc1nc(C)ccc1C(=O)N1CCC2(CC1)C[C@@H](OC(C)C)c1ccccc1O2 [Compound 69],≤ 2000
24,Cc1cc(C(=O)N2CCC3(CC2)CC(OC(C)C)c2ccncc2O3)ccc1OC(C)C (centres unmarked) [Compound 37],≤ 2000
25,COc1ccccc1C(=O)N1CCC2(CC1)CC(OC)c1ccccc1O2 (centres unmarked) [Compound 113],≤ 2000
26,COc1cc(C(=O)N2CCC3(CC2)CC(OC(C)C)c2ccccc2O3)ccc1C(C)(C)C (centres unmarked) [Compound 60],≤ 2000
